Reference: patent US20150190456A1, “USE OF CASPASE 3 ACTIVITY AND ITS INHIBITORS” (THE REGENTS OF THE UNIVERSITY OF COLORADO, priority 2011, published 2015)

Legend:
tumor cells = assay: Growth in mice of a small number of tumor cells pre-treated with PGE2; assay type: in vivo; conditions: about 1000 tumor cells treated with PGE2 versus non-treated cells
Protocol: (§1) Growth of Fluc-labeled tumor cells in vivo was followed through non-invasive bioluminescence imaging using the IVIS200 instrument (Caliper Life Sciences, Hopkinton, Mass). Mice to be imaged were injected with 150 mg/kg of D-luciferin (obtained from Caliper Life Sciences) intraperitoneally in 200 μl of PBS and then anesthetized with continuous flow of isofluorane. Imaging of the mice was carried out 10 minutes later. The time between injection and imaging were kept constant among different batches of mice.
(§2) Different approaches were used to establish tumor growth than traditionally adopted by other studies. In most of the studies by the present inventors, a very small number of Fluc-labeled tumor cells (500-1000 cells each) was injected either alone or together with other unlabeled cells (either tumor cells or fibroblast cells) that are either irradiated or un-irradiated. Tumor growth from these cells was monitored through the quantification of bioluminescence signals emitted from labeled tumor cells using IVIS200 instrument following manufacturer's instructions. In some cases, 500-1000 Fluc labeled tumor cells were injected into (7-9 mm in diameter) tumors that have been established from unlabeled tumor cells.

4T1 cells = assay: Growth of tumor cells injected intratumorally into established tumors in mice, 4T1; assay type: in vivo, mouse; conditions: indomethacin administration
Protocol: as §1
as §2, with “cells. […]” for “cells.”

HCT116 cells = assay: Growth of tumor cells injected intratumorally into established tumors in mice, HCT116; assay type: in vivo, human; conditions: indomethacin administration
Protocol: as §1
as §2, with “cells. […]” for “cells.”

SMILES	growth of treated tumor cells when injected into mice (tumor cells)	growth of intratumorally injected 4T1 cells (4T1 cells)	growth of intratumorally injected HCT116 cells (HCT116 cells)
CCCCC[C@H](O)/C=C/[C@H]1[C@H](O)CC(=O)[C@@H]1C/C=C\CCCC(=O)O [PGE2, prostaglandin E2]	grow at a faster pace than non-treated cells	–	–
COc1ccc2c(c1)c(CC(=O)O)c(C)n2C(=O)c1ccc(Cl)cc1 [indomethacin]	–	effectively suppressed growth	effectively suppressed growth
